Literature values, collected in patent US12310973B2, “Administration and dosage of diaminophenothiazines” (WisTa Laboratories Ltd., priority 2016, dated 2025).

Experiments:
[1] = tested on: TDP-43 aggregates in SH-SY5Y cells; conditions: 0.05 μM MT; cited from earlier work
[2] = tested on: huntingtin derivative containing a polyglutamine stretch of 102 residues; conditions: tested at 0, 10 and 100 μM; zebrafish; cited from earlier work

## methylthioninium [MT]
[1]
  Reduction in number of TDP-43 aggregates: 50%
[2]
  Formation of aggregates of huntingtin derivative (polyglutamine stretch of 102 residues): prevented the formation of such aggregates in zebrafish in a dose dependent manner
